# Measurements: PMC8424097, “Population Pharmacokinetics of Polymyxin B and Dosage Optimization in Renal Transplant Patients” (Frontiers in Pharmacology, 2021)
# Positions of bridges follow the written chain, without caps; N, C: chain ends. Non-standard residues stand in square brackets, D forms with d. Residues, ends and D or L forms follow the SMILES beside them. *: point of attachment. X1 = CC[C@H](C)CCCCC(=O)*; Dab = NCC[C@H](N)C(=O)O
# How the values were obtained:
# [1] = Population pharmacokinetic analysis of polymyxin B in renal transplant patients (plasma, HPLC-MS/MS, Phoenix NLME); assay type: in vivo, human
# Experimental: This prospective study was approved by the Ethics Committee of the Second Xiangya Hospital, Central South University. Informed consent was obtained from all patients or legal representatives of the patients (No. ChiCTR1900022231). Renal transplant patients (aged ≥18 years) who received intravenous polymyxin B (sulfate; Polymyxin B for Injection, China, SPH NO.1 BIOCHEMICAL and PHARMACEUTICAL CO. LTA) for ≥48 h were enrolled. Patients were excluded if they were pregnant, allergic or intolerant to polymyxin B and lacked the necessary data (weight or some renal function index).
# All patients accepted at least 3 days of polymyxin B infusion, and the administration interval of polymyxin B was 12 h with an infusion duration of 60–120 min. One to six blood samples (2 mL) were randomly collected 30 min before the sixth dose of polymyxin B and at 0, 0.5, 1, 2, 4, 6, and 8 h after the end of infusion. Blood samples were centrifuged for 10 min (3,400 rpm/min), and the supernatant was immediately stored at −80°C until analysis. A validated high-performance liquid chromatography-tandem mass spectrometry (HPLC-MS/MS) was used to measure the concentrations of polymyxin B1 and polymyxin B2 ([Thomas et al., 2012]). Briefly, a Shim-pack GIST C18 (2.1*100 mm, 3 μm, Shimadzu) column was used. Gradient chromatography was performed with solvent A (0.1% formic acid in water) and solvent B (acetonitrile). The following gradient elution was performed at a total flow of 0.6 ml/min for analyte elution: 10–60% B from 0 to 5 min, 60%–90% B from five to 5.10 min, 90% from 5.10 to 6 min, 90%–10% B from six to 6.10 min, and 10% B from 6.10 to 10.0 min. The elution time was 10 min, and the injection volume was 2 μL. The interday precision was <12%, the intraday precision was <9%, and the accuracy ranged from 96.1 to 110.4%. The limit of quantification was 0.03 mg/L.
# (§1) The following data were collected: age; sex; weight; maintenance doses; time and route of administration; site of infection; microbes; comorbidities; liver function indexes, such as alanine aminotransferase (ALT), aspartate aminotransferase (AST), total bilirubin (TBIL), direct bilirubin (DBIL), and albumin (ALB); and renal function indexes, such as uric acid (UA), blood urea nitrogen (BUN), and CrCL. CrCL was calculated according to the Cockcroft-Gault equation ([Janmahasatian et al., 2005]). CrCL ≤80 ml/min was defined as renal dysfunction, and when the basic CrCL decreased by more than 25%, nephrotoxicity was defined. Risk, injury, failure, loss and end-stage renal disease criteria were used to define acute kidney injury (AKI) in patients ([Bellomo et al., 2004]). Neurotoxicity was defined when any neurological symptoms or signs occurred during polymyxin B treatment, including dizziness, vertigo, visual disturbances, confusion, hallucinations, ataxia, seizures, and facial and peripheral paresthesia. The observed AUC0–24h of patients was calculated by daily dose/CL.
# The concentration-time data of polymyxin B were analyzed with a nonlinear mixed effect modeling approach with the Phoenix NLME program (version 8.1. Pharsight, A Certara Company, United States of America). The first-order conditional estimation-extended least square method (FOCE-ELS) was used to develop the PPK model. One- and two-compartment models with linear elimination were evaluated for structure model selection based on the objective function value (OFV) and Akaike information criterion (AIC). The interindividual variability of PK parameters was described by an exponential error model. Residual variability was selected with an additive error model, proportional error model and combined error model. The covariates considered for the modeling included age, weight, ALT, AST, TBIL, DBIL, ALB, BUN, UA, and CrCL. The median of the covariate was used to normalize the covariate, and a stepwise method was used to screen the covariates. […]
# [2] = Adverse effects (nephrotoxicity, neurotoxicity, skin) during polymyxin B treatment of renal transplant patients; assay type: in vivo, human
# Experimental: as §1
# [3] = cited from earlier work
# Experimental: According to the results from previous pharmacokinetics and pharmacodynamics (PK/PD) studies, the bactericidal activity of polymyxin B is best correlated with the area under the concentration-time curve over 24 h in steady state divided by the minimum inhibitory concentration (AUC0–24h/MIC) ([Mohamed et al., 2012]). Moreover, the latest guidelines recommended a target plasma AUC0–24h of 50–100 mg⋅h/L to achieve bactericidal activity against an isolate with an MIC of 2 mg/L (the EUCAST and CLSI breakpoints) ([Tsuji et al., 2019]). However, due to the lack of rigorous PK data, the optimal dosing ... || Monte Carlo simulations (n = 1,000) were conducted using metrics to determine the PTA for fAUC0–24h/MIC ≥20 at various MICs (0.5–2 mg/L) in patients with different renal functions (CrCL: 10–80 ml/min), where f is the unbound fraction of polymyxin B (assumed to be 0.42) ([Sandri et al., 2013b]). The dosages were selected according to the most commonly used regimens in renal transplant patients. The regimens were as follows with a 2 h infusion: a single 50 mg loading dose followed by either 30 mg every 12 h or 40 mg every 12 h, either a loading dose of 75 mg or 100 mg followed by 50 mg every 12 ... || In the present study, a one-compartment model was used to describe the original data, which was consistent with some of the previous studies ([Kubin et al., 2018]; [Manchandani et al., 2018]). […] This difference might be mainly due to impaired renal function in the renal transplant patients in this study (CrCL: 20.89 ml/min, range: 4.29–78.84 ml/min) because we identified CrCL as a significant predic ... || (+ 1 further places)
# [4] = rats, 6 h after dosing; ref Manchandani et al., 2015; cited from earlier work
# Experimental: Polymyxin B is mainly distributed in the kidney, and the renal tissue/serum concentration ratio of polymyxin B was 19.62 at 6 h after dosing in rats ([Manchandani et al., 2015]). Therefore, the variation in polymyxin B accumulation in the kidney might be responsible for the differences in the apparent volume of distribution. In addition t ...
# [5] = cited from earlier work; remark: listed apart in the source
# From the text: It is well known that nephrotoxicity is the major adverse effect of polymyxin B, with a wide range from 26.9 to 60% ([Plachouras et al., 2009]; [Akajagbor et al., 2013]; [Dubrovskaya et al., 2015]; [Rigatto et al., 2015]). In the present study, however, the incidence of AKI was extremely low, with only five patients showing nephrotoxicity. As polymyxin B-induced nephrotoxicity is a dose-limiting adverse effect, our result seemed to be consistent with the previous finding that patients with renal impairment might have a lower incidence of AKI due to the decreased percentage of tubular reabsorpt ... || The incidence of neurotoxicity was much higher than noted before (62.0 vs 7%) and has become the dose-limiting factor in our study ([Arnold et al., 2007]). […] Considering their similar structures, this mechanism might also fit polymyxin B; therefore, the higher exposure of p ...
# [6] = of 50 renal transplant patients
# [7] = patients of previous studies, ref Kubin et al., 2018, Manchandani et al.
smiles,measurement,setting,value
CC[C@H](C)CCCCC(=O)N[C@@H](CCN)C(=O)N[C@H](C(=O)N[C@@H](CCN)C(=O)N[C@H]1CCNC(=O)[C@H]([C@@H](C)O)NC(=O)[C@H](CCN)NC(=O)[C@H](CCN)NC(=O)[C@H](CC(C)C)NC(=O)[C@@H](Cc2ccccc2)NC(=O)[C@H](CCN)NC1=O)[C@@H](C)O [polymyxin B] (X1-[Dab]T[Dab][Dab][Dab][dF]L[Dab][Dab]T; lactam 4-C),"CL, bootstrap median","[1]; bootstrap, 1000 resamples",1.17 L/h
same,"V, bootstrap median","[1]; bootstrap, 1000 resamples",11.98 L
same,"Θ CrCL, bootstrap median","[1]; bootstrap, 1000 resamples",0.14
same,mean AUC0–24h (observed),"[1]; calculated by daily dose/CL, mean ± SD, SD",74600 ± 17810 ng·h/mL
same,"Θ CrCL (exponent for CrCL as a covariate for CL), final model estimate",[1]; final PPK model,0.14
same,Vd,"[1]; human, intravenous q 12 h, one-compartment PPK model, 151 plasma samples from 50 patients, HPLC-MS/MS, read-out: V, final model estimate",12.1 L
same,clearance,"[1]; human, intravenous q 12 h, one-compartment PPK model, typical value at CrCL 22.2 ml/min, 151 plasma samples from 50 patients, read-out: CL, final model estimate (converted)",19.7 mL/min
same,incidence of dermatitis,[2]; 50 renal transplant patients,34.0%
same,incidence of neurotoxicity,[2]; 50 renal transplant patients,62.0%
same,nephrotoxicity classified as injury (RIFLE),[2]; [6],one
same,nephrotoxicity classified as risk (RIFLE),[2]; [6],four
same,patients with dermatitis,[2]; [6],Seventeen
same,patients with dizziness,[2]; [6],three
same,patients with facial and peripheral paresthesia,[2]; [6],29 patients
same,patients with nephrotoxicity (basic CrCL decreased by more than 25%),[2]; [6],five
same,patients with neurotoxicity of different degrees,[2]; [6],31 patients
same,patients with seizures,[2]; [6],three
same,patients with pigmentation,"[2]; of 50 renal transplant patients, all disappeared 1 month after withdrawal",Seven
same,days printed for the nephrotoxicity case classified as injury,[2]; renal transplant patients,11 days
same,days printed for the nephrotoxicity cases (all five),[2]; renal transplant patients,3 to 11 days
same,days printed for the nephrotoxicity cases classified as risk,[2]; renal transplant patients,3 to 7 days
same,CL reported in previous one-compartment models,[3]; [7],2.37 to 2.5 L/h
same,V reported by previous studies,[3]; [7],34.3 to 34.4 L
same,urinary recovery (range between patients),"[3]; previous study in patients, ref Sandri et al., 2013b",0.98–17.4%
same,patients achieving the AUC0–24h target at the recommended dosage,"[3]; ref Lakota et al., 2018",71%
same,unbound fraction f (assumed),"[3]; used for fAUC0–24h/MIC in the simulations, ref Sandri et al., 2013b",0.42
same,renal tissue/serum concentration ratio,[4],19.62
same,incidence of neurotoxicity noted before,"[5]; ref Arnold et al., 2007",7%
same,incidence of nephrotoxicity (range of previous reports),"[5]; ref Plachouras et al., 2009, Akajagbor et al., 2013, Dubrovskaya et al., 2015, Rigatto et al., 2015",26.9 to 60%
